# Laboratory results from US20260217656A1, “Compounds Affecting KRAS” (UNIVERSITAT DE BARCELONA, priority 2022, published 2026).
# Columns and labels:
# DLD-1 cells [1] = test: Cleaved caspase-3 Western blot, DLD-1; type: cell-based, human; conditions: DLD-1 cells treated 34 h or 48 h
# Protocol: FIG. 6C is a blot showing extracts of DLD-1, DLD-1-KO and RPE cells at 34 h. and 48 h. DLD-1 cells treated with P14B for 36 h and 48 h were lysed and the expression of the apoptosis marker cleaved caspase-3 was analyzed by Western blot. Cells treated with the apoptosis inducer palmitic acid (PA) were used as a positive control.
# Proteins were resolved by SDS-PAGE, transferred onto PVDF membranes (Immobilon-P, Millipore) and Western blot was performed as previously described (Cabot et al, Oncogene 2021). […]
# Since both inhibition and sustained activation of RAS signaling are related to a decrease in cell survival, we analyzed the viability of the CRC cell lines DLD-1 (expressing oncogenic KRAS) and DLD-1-KO (oncogenic KRAS allele deleted), and the non-transformed cell line hTERT-RPE. […] The effect of P14B in DLD-1 cells cultured in 3D conditions was also determined. […]
# [2] = target: T1, GST-KRAS-G12V binding to CaM (Homo sapiens, UniProt P01116, G12V); test: CaM-sepharose pulldown competition assay; conditions: increasing concentrations of P14B
# T1 construct: recombinant GTP-loaded GST-KRAS-G12V (1-166) with CaM-sepharose beads; made in house; host or cells: Escherichia coli BCI21 (so in the source)
# Protocol: […] of recombinant GST-KRAS (1-166) (GTP loaded) and 12.5 I of CaM-sepharose beads (Cytiva; Merck) (previously washed with pull-down buffer (PDB) containing 50 mM Tris-HCl, pH 7.5, 150 mM NaCl, 0.1% (v/v) Triton X-100) were incubated in the presence of 1 mM CaCl2 or 5 mM EGTA (in a total volume of 100 I with PDB) for 60 minutes at room temperature. The unbound fraction was collected by centrifugation, and the bound fraction was washed four times with PDB with either CaCl2 or EGTA. The entire bound fraction was analysed by WB.
# GST-KRAS (1-166) fusion protein was expressed in Escherichia coli BCI21 and then purified and loaded with the specific nucleotide as previously described (Villalonga et al., 2001).
# To confirm the direct interaction between KRAS and P14B, surface plasmon resonance analysis was performed. Purified GST-KRAS (aminoacids 1 to 166) was immobilized and then GTP loaded. […] Given that P14B is able to bind to oncogenic KRAS (FIG. 4) most likely via the same surface that KRAS uses to interact with CaM, we analyzed the possibility that P14B can displace CaM from oncogenic KRAS. To this end, we performed an in vitro competence assay that consisted of pulling-down recombinant GTP-loaded GST-KRAS-G12V (1-166) with CaM-sepharose beads followed by incubation with increasing concentrations of P14B.
# [3] = target: T2, GST-KRAS (1-166), GTP loaded (Homo sapiens, UniProt P01116, G12V); test: Surface plasmon resonance analysis; type: binding; conditions: GTP-loaded GST-KRAS (aminoacids 1 to 166) immobilized; read-out: affinity constant (KD)
# T2 construct: GST-KRAS (1-166) and GST were covalently immobilized; made in house; host or cells: Escherichia coli BCI21 (so in the source)
# Protocol: Surface Plasmon Resonance Analysis was performed by using BIAcore T200 equipment. GST-KRAS (1-166) and GST were covalently immobilized on two of the channels of CM5 Series S Chip following manufacturers instruction. KRAS was loaded with GTP by injecting 1 mM of GTP 10 μl/min for 30 min in exchange buffer (20 mM Tris-HCl pH 7.5; 50 mM NaCl, 5% glycerol, 0.1% Triton X-100, 1 mM DTT) with 10 mM EDTA at 30° C. and loading was blocked by injecting exchange buffer with 15 mM MgCl2 at 10 μl/min for 5 min. P14B was injected at 12.5 μM, 25 μM, 38.5 μM, 50 μM, 75 μM, 100 μM and 150 μM in running buffer (150 mM NaCl, 50 mM Tris-HCl pH7.5, 2 mM MgCl2, 0.1% Triton and 5% DMSO […] Dissociation was allowed for 10 min in the same buffer. All runs were done by duplicate. Nonspecific binding was subtracted by using two linked channels (GST-KRAS minus GST). Diverse solutions (from 3% to 8%) with DMSO were also prepared to analyse its effect in the RUs, and a solvent correction was performed to reduce the error associated with the injection of the sample. […]
# To confirm the direct interaction between KRAS and P14B, surface plasmon resonance analysis was performed. […] Given that P14B is able to bind to oncogenic KRAS (FIG. 4) most likely via the same surface that KRAS uses to interact with CaM, we analyzed the possibility that P14B can displace CaM from oncogenic KRAS. […]
# DLD-1 cells [4] = test: 3D on-top Matrigel assay; type: cell-based, human
# Protocol: FIG. 6B is a series of images of cells. In total 2.5×10^4 DLD-1 cells were cultured on top of a thin basement membrane matrix (Matrigel) overlaid with a dilute solution of this basement membrane matrix (3D on-top Matrigel assay). At the time of seeding or 24 h later, cells were treated with P14B ([…] after seeding the colonies that had formed were analysed. Representative phase-contrast images are shown. All scale bars, […]
# 3D on-top Matrigel assay was performed as described in (Cabot et al., 2021).
# Since both inhibition and sustained activation of RAS signaling are related to a decrease in cell survival, we analyzed the viability of the CRC cell lines DLD-1 (expressing oncogenic KRAS) and DLD-1-KO (oncogenic KRAS allele deleted), and the non-transformed cell line hTERT-RPE. […] At the IC50 of approximately 80 μM for DLD-1 cells, the viability of DLD-1-KO and of non-transformed cells was not affected (FIG. 6A). […] The effect of P14B in DLD-1 cells cultured in 3D conditions was also determined. […] Consequently, we conclude that P14B selectively reduces the viability of CRC cells expressing oncogenic KRAS, causing minor effects if these cells have been knocked out for oncogenic KRAS or in non-transformed cells. Thereby, P14B might be considered as an inducer of apoptosis in CRC with oncogenic KRAS.
structure (smiles),measurement,setting,value
COc1ccc(C(c2c(C)n[nH]c2O)c2c(C)n[nH]c2O)cc1Oc1ccc([N+](=O)[O-])cc1 [Example P14B],cleaved caspase-3 expression,DLD-1 cells [1],only detected in DLD-1-treated cells
same,Ca+2-dependent GST-KRAS-G12V binding to CaM,[2],reduced
same,Kd,[3],32.8 µM
same,size of the colonies in Matrigel,"DLD-1 cells [4]; P14B added 24 h after seeding, 40 μM",clear reduction in the size of the colonies
same,capacity to form colonies in Matrigel,"DLD-1 cells [4]; P14B added when seeding the cells, 10 μM",drastic reduction in the capacity to form colonies
